For 27 compounds, EC50 results are on record in patent publication US20110230477A1, “COMPOUNDS, PHARMACEUTICAL COMPOSITION AND METHODS FOR USE IN TREATING METABOLIC DISORDERS” (Euroscreen S.A., priority 2008, published 2011).

For the assay, the target named is T1, human GPR43 receptor (hGPR43) (Homo sapiens, UniProt O15552).
T1 construct: expressed in transfected cells
T1 sequence (O15552 1-330): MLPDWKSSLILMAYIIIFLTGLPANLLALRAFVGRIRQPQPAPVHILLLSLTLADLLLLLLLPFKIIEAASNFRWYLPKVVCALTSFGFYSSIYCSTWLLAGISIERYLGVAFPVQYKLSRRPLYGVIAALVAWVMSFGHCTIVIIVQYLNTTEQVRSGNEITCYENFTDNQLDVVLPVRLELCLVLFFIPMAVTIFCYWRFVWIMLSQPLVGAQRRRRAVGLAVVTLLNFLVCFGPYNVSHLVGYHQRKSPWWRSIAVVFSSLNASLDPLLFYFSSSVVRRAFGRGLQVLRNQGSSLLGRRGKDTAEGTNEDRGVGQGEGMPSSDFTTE
Description: GTPγS binding assay (SPA method). In kind it is biochemical. The settings on record: membranes expressing hGPR43; assay performed in the presence of SCFA; read-out: EC50 (nM) in GTPγ35S assay. An excerpt: The following assay can be used for determination of GPR43 activation. When a GPCR is in its active state, either as a result of ligand binding or constitutive activation, the receptor couples to a G protein and stimulates the release of GDP and subsequent binding of GTP to the G protein. The alpha subunit of the G protein-receptor complex acts as a GTPase and slowly hydrolyses the GTP to GDP, at which point the receptor normally is deactivated. Activated receptors continue to exchange GDP for GTP. […] The assay uses the ability of GPCR to stimulate [^35S]GTPγS binding to membranes expressing the relevant receptors. The assay can, therefore, be used in the direct identification method to screen candidate compounds to endogenous or not endogenous GPCR.
Membrane extracts were prepared from cells expressing the human GPR43 receptor (hGPR43) as follows: the medium was aspirated and the cells were scraped from the plates in Ca^++ and Mg^++-free Phosphate-buffered saline (PBS). The cells were then centrifuged for 3 min at 1500 g and the pellets were resuspended in buffer A (15 mM Tris-HCl pH 7.5, 2 mM MgCl2, 0.3 mM EDTA, 1 mM EGTA) and homogenized in a glass homogenizer. […] Protein content was assayed by the Folin method.
The assay was performed in the presence of SCFA, and was used to determine the activity of the compounds of the invention.
The [^35S]GTPγS assay was incubated in 20 mM HEPES pH7.4, 100 mM NaCl, 10 μg/ml saponin, 30 mM of MgCl2, 10 μM of GDP, 5 μg membrane-expressing hGPR43, 250 μg of wheatgerm agglutinin beads (Amersham, ref: RPNQ001), a range concentration of compounds (from 30 μM to 1 nM) in a final volume of 100 μl for 30 min at room temperature. The SCFA propionate was used at 1 mM final concentration as positive control. The plates were then centrifuged for 10 minutes at 2000 rpm, incubated for 2 hours at room temperature and counted for 1 min in a scintillation counter (TopCount, PerkinElmer).
Background: GTPγS resists hydrolysis and so accumulates on activated G proteins.

Usually EC50 stands for the concentration giving half of the maximal effect. Take `O=C(O)C[C@@H](CC1CCCC1)C(=O)N(c1nc(-c2cc(Cl)ccc2Cl)cs1)C1CC1` [Compound 166, (R)-3-(cyclopentylmethyl)-4-(cyclopropyl(4-(2,5-dichlorophenyl)thiazol-2-yl)amino)-4-oxobutanoic acid]: the 50% effective concentration (EC50) was 13 nM. `O=C(O)C[C@H](C(=O)Nc1nc(-c2ccccc2Cl)cs1)c1ccccc1` [Compound 9, (S)-4-(4-(2-chlorophenyl)thiazol-2-ylamino)-4-oxo-3-phenylbutanoic acid]: the EC50 was determined as 60 nM. The same measure for `CN(C(=O)[C@@H](CC(=O)O)Cc1ccccc1)c1nc(-c2ccccc2-c2ccccc2)cs1` [Compound 111, (R)-4-((4-([1,1′-biphenyl]-2-yl)thiazol-2-yl)(methyl)amino)-3-benzyl-4-oxobutanoic acid]: 393 nM; for `COc1ccc(-c2ccccc2-c2csc(N(C(=O)[C@@H](CC(=O)O)Cc3ccccc3)C3CC3)n2)cn1` [Compound 178, (R)-3-benzyl-4-(cyclopropyl(4-(2-(6-methoxypyridin-3-yl)phenyl)thiazol-2-yl)amino)-4-oxobutanoic acid]: 30 nM; for `C[C@H](c1ccccc1)[C@@H](CC(=O)O)C(=O)N(C)c1nc(-c2ccccc2Cl)cs1` [Compound 195, (3R,4S)-3-((4-(2-chlorophenyl)thiazol-2-yl)(methyl)carbamoyl)-4-phenylpentanoic acid]: 2170 nM. The same measure for `CN(C(=O)C(CC(=O)O)CC1CCCCC1)c1nc(-c2ccccc2Cl)cs1` (stereo not drawn) [Compound 103, 4-((4-(2-chlorophenyl)thiazol-2-yl)(methyl)amino)-3-(cyclohexylmethyl)-4-oxobutanoic acid]: 137 nM. With `COc1ccc(-c2ccccc2-c2csc(N(C)C(=O)[C@@H](CC(=O)O)CC3CCOCC3)n2)cn1` [Compound 160, (R)-4-((4-(2-(6-methoxypyridin-3-yl)phenyl)thiazol-2-yl)(methyl)amino)-4-oxo-3-((tetrahydro-2H-pyran-4-yl)methyl)butanoic acid], the EC50 is 244 nM. The same measure for `COc1ncc(-c2ccc(Cl)cc2-c2csc(N(C)C(=O)[C@@H](CC(=O)O)Cc3ccccc3)n2)cc1Cl` [Compound 222, (R)-3-benzyl-4-((4-(5-chloro-2-(5-chloro-6-methoxypyridin-3-yl)phenyl)thiazol-2-yl)(methyl)amino)-4-oxobutanoic acid]: 102 nM; for `C[C@@H](c1ccccc1)[C@H](CC(=O)O)C(=O)N(C)c1nc(-c2ccccc2Cl)cs1` [Compound 106, (3S ,4R)-3-((4-(2-chlorophenyl)thiazol-2-yl)(methyl)carbamoyl)-4-phenylpentanoic acid]: 216 nM; for `COc1ncc(-c2ccc(Cl)cc2-c2csc(N(C(=O)[C@@H](CC(=O)O)CC3CCCC3)C3CC3)n2)cc1Cl` [Compound 223, (R)-4-((4-(5-chloro-2-(5-chloro-6-methoxypyridin-3-yl)phenyl)thiazol-2-yl)(cyclopropyl)amino)-3-(cyclopentylmethyl)-4-oxobutanoic acid]: 87 nM.

Consider `O=C(O)C[C@@H](Cc1ccccc1)C(=O)Nc1cnc(-c2ccccc2Cl)cn1` [Compound 197, (R)-3-benzyl-4-((5-(2-chlorophenyl)pyrazin-2-yl)amino)-4-oxobutanoic acid], for which the EC50 came out at 1910 nM. In the case of `O=C(O)C[C@@H](Cc1ccccc1)C(=O)Nc1nc(-c2cc(Cl)sc2Cl)cs1` [Compound 112, (R)-3-benzyl-4-(4-(2,5-dichlorothiophen-3-yl)thiazol-2-ylamino)-4-oxobutanoic acid], the EC50 came to 538 nM.

Regarding `CN(C)c1ccc(-c2ccccc2-c2csc(N(C)C(=O)[C@@H](CC(=O)O)Cc3ccccc3)n2)cn1` [Compound 115, (R)-3-benzyl-4-((4-(2-(6-(dimethylamino)pyridin-3-yl)phenyl)thiazol-2-yl)(methyl)amino)-4-oxobutanoic acid], the EC50 was 72 nM. Turning to `O=C(O)C[C@@H](Cc1cccc(F)c1)C(=O)Nc1nc(-c2ccccc2Cl)cs1` [Compound 93, (R)-4-(4-(2-chlorophenyl)thiazol-2-ylamino)-3-(3-fluorobenzyl)-4-oxobutanoic acid], the EC50 came to 493 nM. The same measure for `CN(C(=O)[C@@H](CC(=O)O)Cc1ccccc1)c1nc(-c2ccccc2-c2ccc(F)nc2)cs1` [Compound 119, (R)-3-benzyl-4-((4-(2-(6-fluoropyridin-3-yl)phenyl)thiazol-2-yl)(methyl)amino)-4-oxobutanoic acid]: 421 nM; for `CN(C(=O)[C@@H](CC(=O)O)Cc1ccccc1)c1nc(-c2ccccc2-c2ccc(N3CCOCC3)cc2)cs1` [Compound 132, (R)-4-(2′-(2-(2-benzyl-3-carboxy-N-methylpropanamido)thiazol-4-yl)-[1,1′-biphenyl]-4-yl)morpholin-4-ium 2,2,2-trifluoroacetate]: 276 nM; for `CN(C(=O)[C@@H](CC(=O)O)CC1CCCO1)c1nc(-c2ccccc2Cl)cs1` (stereo partly drawn) [Compound 154, (3R)-4-((4-(2-chlorophenyl)thiazol-2-yl)(methyl)amino)-4-oxo-3-((tetrahydrofuran-2-yl)methyl)butanoic acid]: 832 nM. Next, `CN(C(=O)[C@@H](CC(=O)O)Cc1ccccc1)c1nc(-c2ccccc2-c2ccc(N3CCCC3)nc2)cs1` [Compound 131, (R)-1-(5-(2-(2-(2-benzyl-3-carboxy-N-methylpropanamido)thiazol-4-yl)phenyl)pyridin-2-yl)pyrrolidin-1-ium 2,2,2-trifluoroacetate]: 96 nM; `COc1ccc(-c2ccccc2-c2csc(N(C)C(=O)[C@@H](CC(=O)O)Cc3ccccc3)n2)cc1` [Compound 129, (R)-3-benzyl-4-((4-(4′-methoxy-[1,1′-biphenyl]-2-yl)thiazol-2-yl)(methyl)amino)-4-oxobutanoic acid]: 858 nM. The same measure for `O=C(O)C[C@@H](Cc1ccccc1)C(=O)N(CCOCc1ccccc1)c1nc(-c2ccccc2Cl)cs1` [Compound 201, (R)-3-benzyl-4-((2-(benzyloxy)ethyl)(4-(2-chlorophenyl)thiazol-2-yl)amino)-4-oxobutanoic acid]: 1360 nM. Regarding `O=C(O)C[C@@H](Cc1ccccc1)C(=O)N(c1nc(-c2cc(C(F)(F)F)ccc2Cl)cs1)C1CC1` [Compound 191, (R)-3-benzyl-4-((4-(2-chloro-5-(trifluoromethyl)phenyl)thiazol-2-yl)(cyclopropyl)amino)-4-oxobutanoic acid], the EC50 stood at 37 nM. As for `O=C(O)C[C@@H](Cc1ccccc1)C(=O)Nc1nc(-c2cccc(C(F)(F)F)c2)cs1` [Compound 13, (R)-3-benzyl-4-oxo-4-(4-(3-(trifluoromethyl)phenyl)thiazol-2-ylamino)butanoic acid], the half-maximal effective concentration (EC50) amounted to 875 nM. The same measure for `CN(C(=O)[C@@H](CC(=O)O)CC1CCCCC1)c1nc(-c2ccccc2Cl)cs1` [Compound 89, (R)-4-((4-(2-chlorophenyl)thiazol-2-yl)(methyl)amino)-3-(cyclohexylmethyl)-4-oxobutanoic acid]: 37 nM; for `NC(=O)CN(C(=O)[C@@H](CC(=O)O)Cc1ccccc1)c1nc(-c2ccccc2Cl)cs1` [Compound 121, (R)-4-((2-amino-2-oxoethyl)(4-(2-chlorophenyl)thiazol-2-yl)amino)-3-benzyl-4-oxobutanoic acid]: 766 nM. Consider `CN(C(=O)[C@@H](CC(=O)O)Cc1ccccc1)c1nc(-c2ccccc2-c2ccsc2)cs1` [Compound 107, (R)-3-benzyl-4-(methyl(4-(2-(thiophen-3-yl)phenyl)thiazol-2-yl)amino)-4-oxobutanoic acid], for which the EC50 came out at 361 nM. The same measure for `CN(C(=O)[C@@H](CC(=O)O)Cc1ccccc1)c1nc(-c2ccccc2Cl)c(F)s1` [Compound 60, (R)-3-benzyl-4-((4-(2-chlorophenyl)-5-fluorothiazol-2-yl)(methyl)amino)-4-oxobutanoic acid]: 95 nM; for `CN(C)c1ccc(-c2ccccc2-c2csc(N(C(=O)[C@@H](CC(=O)O)CC3CCCC3)C3CC3)n2)cn1` [Compound 218, (R)-3-(cyclopentylmethyl)-4-(cyclopropyl(4-(2-(6-(dimethylamino)pyridin-3-yl)phenyl)thiazol-2-yl)amino)-4-oxobutanoic acid]: 32 nM.
